# Measurements: US6737383B1, “Herbicidal oxadiazolidines” (priority 1999, dated 2004)
# Columns and labels:
# [1] = system: purple nutsedge; assay: Test B pre/postemergence purple nutsedge; type: in vivo, Cyperus rotundus
# Outline: (§1)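 Response is a visual 0-to-10 score relative to untreated plants, where 0 means no effect and 10 means complete control, taken twelve to sixteen days after application. Treatments went onto soil at planting and onto foliage of 1- to 4-leaf plants, using a surfactant-containing non-phytotoxic solvent.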
# [2] = system: crabgrass; assay: Test B pre/postemergence crabgrass; type: in vivo, Digitaria sanguinalis
# Outline: as §1
# [3] = system: wild oat; assay: Test B pre/postemergence wild oat; type: in vivo, Avena fatua
# Outline: as §1
# [4] = system: sugar beet; assay: Test B pre/postemergence sugar beet; type: in vivo, Beta vulgaris
# Outline: as §1
# [5] = system: bamyardgrass; assay: Test B flood test barnyardgrass; type: in vivo, Echinochloa crus-galli
# Outline: (§2)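 Flood test on plants grown to the 2-leaf stage; treated plants kept in greenhouse twelve to sixteen days, then visually rated against controls on a 0 (no effect) to 10 (complete control) scale.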
# [6] = system: corn; assay: Test B pre/postemergence corn; type: in vivo, Zea mays
# Outline: as §1
# [7] = system: velvetleaf; assay: Test B pre/postemergence velvetleaf; type: in vivo, Abutilon theophrasti
# Outline: as §1
# [8] = system: surinam grass; assay: Test B pre/postemergence surinam grass; type: in vivo, Brachiaria decumbens
# Outline: as §1
# [9] = system: pigweed; assay: Test B pre/postemergence pigweed; type: in vivo, Amaranthus retroflexus
# Outline: as §1
# [10] = system: blackgrass; assay: Test B pre/postemergence blackgrass; type: in vivo, Alopecurus myosuroides
# Outline: as §1
# [11] = system: bedstraw; assay: Test B pre/postemergence bedstraw; type: in vivo, Galium aparine; settings: Postemergence
# Outline: as §1
# [12] = system: soybean; assay: Test B pre/postemergence soybean; type: in vivo, Glycine max
# Outline: as §1
# [13] = system: wheat; assay: Test B pre/postemergence wheat; type: in vivo, Triticum aestivum
# Outline: as §1
# [14] = system: rape; assay: Test B pre/postemergence rape; type: in vivo, Brassica napus
# Outline: as §1
# [15] = system: smallflower flatsedge; assay: Test B flood test smallflower flatsedge; type: in vivo, Cyperus difformis
# Outline: as §2
# [16] = system: cocklebur; assay: Test B pre/postemergence cocklebur; type: in vivo, Xanthium strumarium
# Outline: as §1
# [17] = Postemergence, Rate 62 g/ha, scale 0 to 10, 0 is no effect, 10 is complete control
# [18] = Postemergence, Rate 125 g/ha, scale of 0 to 10 where 0 is no effect and 10 is complete control
# [19] = Postemergence, Rate 250 g/ha, scale of 0 to 10, 0 is no effect, 10 is complete control
# [20] = Preemergence, Rate 62 g/ha, scale 0 to 10 (0 no effect, 10 complete control)
# [21] = Preemergence, Rate 125 g/ha, scale of 0 to 10 where 0 is no effect and 10 is complete control
# [22] = Preemergence, Rate 250 g/ha, scale 0 to 10 (0 no effect, 10 complete control)
# [23] = Preemergence, Rate 500 g/ha, scale of 0 to 10 where 0 is no effect and 10 is complete control
# [24] = Postemergence, Rate 500 g/ha, scale of 0 to 10 where 0 is no effect and 10 is complete control
# [25] = Rate 62 g/ha, flood test species, Pre-emergence, visual evaluation after twelve to sixteen days
# [26] = Rate 125 g/ha, under heading Pre-emergence, flood test species, visual evaluation after twelve to sixteen days
# [27] = Rate 250 g/ha, Pre-emergence (flood test species), scale 0 to 10, 0 is no effect, 10 is complete control
# [28] = Rate 500 g/ha, Pre-emergence section of Table B, 0 to 10 scale (0 no effect, 10 complete control)
smiles,measurement,setting,value
CC(=O)N(C)CCn1c(=O)on(C(=O)N(c2ccc(F)cc2)C(C)C)c1=O [Compound 625],"Plant response rating, Nutsedge",[1]; [17],0
same,"Plant response rating, Nutsedge",[1]; [18],0
same,Nutsedge plant response rating,[1]; [19],0
same,Nutsedge plant response rating,[1]; [20],0
same,Nutsedge plant response rating,[1]; [21],0
same,"Plant response rating, Nutsedge",[1]; [22],0
same,"Plant response rating, Nutsedge",[1]; [23],0
same,"Plant response rating, Crabgrass",[2]; [17],1
same,"Plant response rating, Crabgrass",[2]; [18],0
same,Crabgrass plant response rating,[2]; [19],4
same,"Plant response rating, Crabgrass",[2]; [24],8
same,Crabgrass plant response rating,[2]; [20],2
same,Crabgrass plant response rating,[2]; [21],7
same,"Plant response rating, Crabgrass",[2]; [22],8
same,"Plant response rating, Crabgrass",[2]; [23],10
same,"Plant response rating, Wild oats",[3]; [17],0
same,"Plant response rating, Wild oats",[3]; [18],0
same,Wild oats plant response rating,[3]; [19],0
same,Wild oats plant response rating,[3]; [20],0
same,Wild oats plant response rating,[3]; [21],0
same,"Plant response rating, Wild oats",[3]; [22],3
same,"Plant response rating, Wild oats",[3]; [23],5
same,"Plant response rating, Sugarbeets",[4]; [17],0
same,"Plant response rating, Sugarbeets",[4]; [18],0
same,Sugarbeets plant response rating,[4]; [19],0
same,Sugarbeets plant response rating,[4]; [20],0
same,Sugarbeets plant response rating,[4]; [21],0
same,"Plant response rating, Sugarbeets",[4]; [22],0
same,"Plant response rating, Sugarbeets",[4]; [23],0
same,"Plant response rating, Barnyardgrass (0 to 10 scale, 0 is no effect, 10 is complete control)",[5]; [25],0
same,"Barnyardgrass plant response rating (0 to 10 scale, 0 is no effect, 10 is complete control)",[5]; [26],0
same,Barnyardgrass plant response rating,[5]; [27],0
same,Barnyardgrass plant response rating,[5]; [28],0
same,"Plant response rating, Corn",[6]; [17],0
same,"Plant response rating, Corn",[6]; [18],0
same,Corn plant response rating,[6]; [19],0
same,"Plant response rating, Corn",[6]; [24],3
same,Corn plant response rating,[6]; [20],0
same,Corn plant response rating,[6]; [21],0
same,"Plant response rating, Corn",[6]; [22],0
same,"Plant response rating, Corn",[6]; [23],3
same,"Plant response rating, Velvetleaf",[7]; [17],0
same,"Plant response rating, Velvetleaf",[7]; [18],0
same,Velvetleaf plant response rating,[7]; [19],0
same,Velvetleaf plant response rating,[7]; [20],0
same,Velvetleaf plant response rating,[7]; [21],0
same,"Plant response rating, Velvetleaf",[7]; [22],1
same,"Plant response rating, Velvetleaf",[7]; [23],6
same,"Plant response rating, B. signalgrass",[8]; [17],0
same,"Plant response rating, B. signalgrass",[8]; [18],0
same,B. signalgrass plant response rating,[8]; [19],2
same,"Plant response rating, B. signalgrass",[8]; [24],5
same,B. signalgrass plant response rating,[8]; [20],0
same,B. signalgrass plant response rating,[8]; [21],4
same,"Plant response rating, B. signalgrass",[8]; [22],8
same,"Plant response rating, B. signalgrass",[8]; [23],10
same,"Plant response rating, Redroot pigweed",[9]; [17],0
same,"Plant response rating, Redroot pigweed",[9]; [18],0
same,Redroot pigweed plant response rating,[9]; [19],0
same,Redroot pigweed plant response rating,[9]; [20],0
same,Redroot pigweed plant response rating,[9]; [21],0
same,"Plant response rating, Redroot pigweed",[9]; [22],4
same,"Plant response rating, Redroot pigweed",[9]; [23],8
same,"Plant response rating, Blackgrass",[10]; [17],0
same,"Plant response rating, Blackgrass",[10]; [18],2
same,Blackgrass plant response rating,[10]; [19],7
same,"Plant response rating, Blackgrass",[10]; [24],7
same,Blackgrass plant response rating,[10]; [20],0
same,Blackgrass plant response rating,[10]; [21],3
same,"Plant response rating, Blackgrass",[10]; [22],7
same,"Plant response rating, Blackgrass",[10]; [23],9
same,"Plant response rating, Bedstraw","[11]; Rate 62 g/ha, scale 0 to 10, 0 is no effect, 10 is complete control",0
same,"Plant response rating, Bedstraw","[11]; Rate 125 g/ha, scale of 0 to 10 where 0 is no effect and 10 is complete control",0
same,"Plant response rating, Soybean",[12]; [17],0
same,"Plant response rating, Soybean",[12]; [18],2
same,Soybean plant response rating,[12]; [19],3
same,Soybean plant response rating,[12]; [20],0
same,Soybean plant response rating,[12]; [21],0
same,"Plant response rating, Soybean",[12]; [22],0
same,"Plant response rating, Soybean",[12]; [23],0
same,"Plant response rating, Wheat",[13]; [17],0
same,"Plant response rating, Wheat",[13]; [18],0
same,Wheat plant response rating,[13]; [19],0
same,Wheat plant response rating,[13]; [20],0
same,Wheat plant response rating,[13]; [21],0
same,"Plant response rating, Wheat",[13]; [22],0
same,"Plant response rating, Wheat",[13]; [23],3
same,"Plant response rating, Rape",[14]; [17],0
same,"Plant response rating, Rape",[14]; [18],0
same,Rape plant response rating,[14]; [19],0
same,"Plant response rating, Rape",[14]; [24],0
same,Rape plant response rating,[14]; [20],0
same,Rape plant response rating,[14]; [21],0
same,"Plant response rating, Rape",[14]; [23],4
same,"Plant response rating, S. Flatsedge (0 to 10 scale, 0 is no effect, 10 is complete control)",[15]; [25],0
same,"S. Flatsedge plant response rating (0 to 10 scale, 0 is no effect, 10 is complete control)",[15]; [26],0
same,S. Flatsedge plant response rating,[15]; [27],0
same,S. Flatsedge plant response rating,[15]; [28],0
same,"Plant response rating, Cocklebur",[16]; [17],0
same,"Plant response rating, Cocklebur",[16]; [18],0
same,Cocklebur plant response rating,[16]; [19],0
same,"Plant response rating, Cocklebur",[16]; [24],0
same,Cocklebur plant response rating,[16]; [20],0
same,Cocklebur plant response rating,[16]; [21],0
same,"Plant response rating, Cocklebur",[16]; [22],0
same,"Plant response rating, Cocklebur",[16]; [23],0
